# Reference: patent US20140113904A1, “TREATMENT OF CANCER WITH TOR KINASE INHIBITORS” (SIGNAL PHARMACEUTICALS, LLC, priority 2012, published 2014)
# pIC50: −log10 of the molar value. Like-named read-outs stand apart in the source and are kept apart here.
# How the values were obtained:
# [1] = system: AKT (T308); assay: Phospho-AKT (T308) in PC-3 cell lysates, MSD (Compound 2); format: cell-based; conditions: Homo sapiens; PC-3, 1 hour; read-out: PDK1 AKT (T308) IC50
# Procedure: The direct substrate for mTORC1 was 4E-BP1(T46) and the indirect downstream substrate was S6RP (S235/S236). The direct substrate for mTORC2 was AKT (S473) and the indirect downstream substrates measured were GSK3β(S9) and PRAS40 (T246). Additionally, the phosphorylation status of AKT (T308), a phosphorylation site for PDK1, was monitored. Concentration-response curves were plotted and IC50 values determined. Cells were plated in 96-well flat bottom plates at the required density (PC-3 cells/well) and the cells were allowed to equilibrate at 37° C., 5% CO2 overnight. […] After the incubation period, the culture media was removed carefully with an aspirator. The plate was placed on ice and 50 μL of 1× Tris Lysis Buffer was added to each well. The plate was placed on a shaker at 4° C. for 1 hour to lyse the cells. At that point, the plate was either frozen at -80° C. for later analysis or immediately assayed for phosphoproteins as described below. To monitor interassay variability, a reference standard was included in the assay for PC-3 cells and the coefficient of variation for assay of […]) was 9.3% (n=50) and for assay of p-AKT (S473) was 28.6% (n=50). The assay plate was incubated with 150 μL of MSD Blocking Buffer for 1 hour with shaking at room temperature. […] Then 150 μL of 1×MSD Read Buffer T was added to each well. The plate was read on the SECTOR Imager plate reader.
# [2] = system: pAKT (S473); assay: pAKT (S473) in PC3 tumors, MSD (Compound 2); format: in vivo, SCID mice; conditions: Mus musculus; for inhibition at 0.1 mg/kg: 0.1 mg/kg single oral dose; for inhibition at 0.3 mg/kg: 0.3 mg/kg single oral dose; for inhibition at 10 mg/kg: 10 mg/kg single oral dose
# [3] = system: PC3 cells; assay: Cell cycle distribution by flow cytometry-based PI staining; parameters: species or system human
# Procedure: PC3 tumor cells were plated at 250,000 cells per well in a 6-well plate and allowed to equilibrate overnight in 5% CO2 at 37° C. For treatment, the media was aspirated to remove dead/floating cells before addition of 3 mL of media with or without compound. […] The cells were then processed for cell cycle analysis. The media was transferred into a 15 mL tube. The cells were trypsinized and transferred to the same tube. The cells were then spun at 12 000 rpm, re-suspended in 500 μL propidium iodide (PI) staining buffer, and incubated at room temperature in the dark for 30 minutes. The sample was then analyzed on a FACSCaliber instrument. The cell cycle experiments were performed on two independent occasions.
# The raw data collected from BD FACS Calibur was analyzed by cell cycle software ModFit LT (Verity Software House, Inc). The histogram was generated using the automatic analysis setting. All numbers generated by ModFit LT were transferred to Microsoft Excel and graphed.
# PC3 cells display an aneuploid phenotype which is evident in the comparison with HeLa cells.
# [4] = system: PC3 tumors; assay: Apoptosis TUNEL assay in PC3 tumors (Compound 1, rapamycin); format: in vivo, SCID mice; conditions: 25 mg/kg oral QD for 6 days, 2 hours after last dose
# Procedure: Two hours after the last dose of either vehicle, Compound 1, or rapamycin, the mice were euthanized and the tumors were dissected. The tumors were snap frozen in liquid nitrogen and processed for immunohistochemistry (IHC) and TUNEL.
# To detect the apoptotic cells, fluorescence in situ cell death detection kit (Roche Biosciences) was used. Five to ten micron thick cryostat sections were fixed in 4% paraformaldehyde for 15 minutes at room temperature, washed, permeabilized with 0.3% triton X-100 and 0.1% sodium citrate in PBS for 10 minutes. Sections were then washed in PBS and incubated with a labeling solution containing TdT enzyme for 1 hour at 37° C. in the dark. The sections were washed in PBS, counterstained with Hoechst dye (0.4 μg/mL) at room temperature for 10 minutes and mounted in Prolong Gold antifade reagent.
# The tissues sections processed for apoptosis or immunostained for proliferating cells (Ki-67) or blood vessels were quantitated using Metamorph software. Using 20× objective, 5 different fields from each section, 2 to 4 sections from each tumor, and 3 to 4 tumors from each treatment group or control were used for quantitation. The area of interest was expressed as the percent threshold area of the total area.
# [5] = 0.5 h, read-out: PD Marker Inhibition (%) pAKT (S473)
# [6] = 1 h, read-out: PD Marker Inhibition (%) pAKT (S473)
# [7] = 3 h, read-out: PD Marker Inhibition (%) pAKT (S473)
# [8] = 6 h, read-out: PD Marker Inhibition (%) pAKT (S473)
# [9] = 10 h, read-out: PD Marker Inhibition (%) pAKT (S473)
# [10] = 24 h, read-out: PD Marker Inhibition (%) pAKT (S473)
compound,measurement,setting,value
"CCN1C(=O)CNc2ncc(-c3ccc(-c4nc[nH]n4)nc3C)nc21 [Compound 2, 1-ethyl-7-(2-methyl-6-(1H-1,2,4-triazol-3-yl)pyridin-3-yl)-3,4-dihydropyrazino[2,3-b]pyrazin-2(1H)-one]",pIC50,[1],7.32
same,inhibition at 0.1 mg/kg,[2]; [5],50%
same,inhibition at 0.1 mg/kg,[2]; [6],25.1%
same,inhibition at 0.1 mg/kg,[2]; [7],15.3%
same,inhibition at 0.1 mg/kg,[2]; [8],14.2%
same,inhibition at 0.1 mg/kg,[2]; [9],2.5%
same,inhibition at 0.1 mg/kg,[2]; [10],0%
same,inhibition at 0.3 mg/kg,[2]; [5],77.2%
same,inhibition at 0.3 mg/kg,[2]; [6],70.7%
same,inhibition at 0.3 mg/kg,[2]; [7],52.9%
same,inhibition at 0.3 mg/kg,[2]; [8],42.2%
same,inhibition at 0.3 mg/kg,[2]; [9],23%
same,inhibition at 0.3 mg/kg,[2]; [10],9.6%
same,inhibition at 1 mg/kg,"[2]; 1 mg/kg single dose, through 10 hours, read-out: inhibition of pAKT (S473) in tumor",~65%
same,inhibition at 1 mg/kg,"[2]; 1 mg/kg single oral dose, 1 h, read-out: PD Marker Inhibition (%) pAKT (S473)",79.6%
same,inhibition at 1 mg/kg,"[2]; 1 mg/kg single oral dose, 3 h, read-out: PD Marker Inhibition (%) pAKT (S473)",65.1%
same,inhibition at 1 mg/kg,"[2]; 1 mg/kg single oral dose, 6 h, read-out: PD Marker Inhibition (%) pAKT (S473)",69.9%
same,inhibition at 1 mg/kg,"[2]; 1 mg/kg single oral dose, 10 h, read-out: PD Marker Inhibition (%) pAKT (S473)",65.5%
same,inhibition at 1 mg/kg,"[2]; 1 mg/kg single oral dose, 24 h, read-out: PD Marker Inhibition (%) pAKT (S473)",19%
same,inhibition at 10 mg/kg,[2]; [6],87.6%
same,inhibition at 10 mg/kg,[2]; [7],88.3%
same,inhibition at 10 mg/kg,[2]; [8],86.9%
same,inhibition at 10 mg/kg,[2]; [9],86%
same,inhibition at 10 mg/kg,[2]; [10],79.8%
"CO[C@H]1CC[C@H](N2C(=O)CNc3ncc(-c4ccc(C(C)(C)O)nc4)nc32)CC1 [Compound 1, 7-(6-(2-hydroxypropan-2-yl)pyridin-3-yl)-1-((1r,4r)-4-methoxycyclohexyl)-3,4-dihydropyrazino-[2,3-b]pyrazin-2(1H)-one]",% G1,"[3]; 0.5 μM, 24 hours",81.1%
same,% G1a,"[3]; 0.5 μM, 24 hours",79%
same,% G1,"[3]; 1 μM, 24 hours",88.6%
same,% G1a,"[3]; 1 μM, 24 hours",84.8%
same,% G1,"[3]; 5 μM, 24 hours",89.2%
same,% G1a,"[3]; 5 μM, 24 hours",83.9%
same,induction of apoptosis (sub-G1 peak),[3]; 24 hours,did not appear to be induction of apoptosis
same,effect on cell cycle distribution,[3]; concentrations relevant to growth inhibition,capable of inducing a G1 arrest
same,TUNEL-positive cells compared with the vehicle control,[4],about a two fold increase
